The values below come from US7863416B2, “Nociceptin-based analgesics” (Synvax, Inc., priority 2001, dated 2011).

Experiment [1] deals with T1, human ORL1 (Homo sapiens, UniProt P41146).
T1 construct: expressed in transfected cells; host or cells: CHO cells (G418-selected)
Kind of experiment: Stimulation of [35S]GTPγS binding in membranes of CHO cells transfected with human ORL-1. Format: biochemical. The following applies: for agonist/antagonist character at ORL1: in words. In general terms: GTPγS is a poorly hydrolysed GTP analogue; its binding reports G protein activation.

Experiment [2] can be described thus: In vivo test for analgesic activity and potentiation of morphine analgesia.
For experiment [3], the target named is T1, human ORL1. Description: [3H]nociceptin binding to membranes of CHO cells transfected with human ORL1.
The target of experiment [4] is T1, human ORL1. Kind of experiment: Antagonism of nociceptin-stimulated [35S]GTPγS binding (inhibition, Schild analysis). Format: biochemical.
The test system of experiment [5] is mice. Kind of experiment: Tail flick assay, peptide alone, intracerebroventricular injection. The note with it: 10.0 and 30.0 nmol icv, 10 and 20 minutes post-injection.
In experiment [6] the test system is mice. Kind of experiment: Tail flick assay, peptide combined with morphine and/or N/OFQ (morphine-induced analgesia). Format: in vivo. The protocol:
The modified Boniferroni Test was used for these planned comparisons (p value was set at P<0.036). Doses were determined based on the potency of the compounds tested.
The antagonist was next assayed for the ability to reverse the inhibition of morphine-induced analgesia. In this assay, the control received morphine alone, while test animals received morphine +3 nmol of the antagonist, morphine +10 nmol of the antagonist. […] For each of these animals, response was measured at 5, 10, and 20 minutes after intracerebroventricular injection.
The agonist VII-87-B was further investigated by evaluating its ability to reverse morphine-induced analgesia. In this assay, the control animal received 10 nmols of morphine alone, while test animals received morphine +0.1 nmol of the agonist, morphine +1.0 nmol of the agonist, or morphine +10.0 nmol of the agonist. For each of these animals, response was measured at 5, 10, and 20 minutes after intracerebroventricular injection.
The agonist VII-39-D was then further investigated by evaluating its ability to reverse morphine-induced analgesia. In this assay, the control animal received 10 nmols of morphine alone, while test animals received morphine +0.1 nmol of the agonist, morphine +1.0 nmol of the agonist, or morphine +10.0 nmol of the agonist. For each of these animals, response was measured at 5, 10, and 20 minutes after intracerebroventricular injection.

Peptide text beside a SMILES is read from it. * marks the point of attachment. Hexanoyl = CCCCCC(=O)*; Pentanoyl = CCCCC(=O)*

What is called IC50 is the concentration that gives 50% inhibition. A lower IC50 goes with greater potency.

T1 sequence (P41146 whole entry): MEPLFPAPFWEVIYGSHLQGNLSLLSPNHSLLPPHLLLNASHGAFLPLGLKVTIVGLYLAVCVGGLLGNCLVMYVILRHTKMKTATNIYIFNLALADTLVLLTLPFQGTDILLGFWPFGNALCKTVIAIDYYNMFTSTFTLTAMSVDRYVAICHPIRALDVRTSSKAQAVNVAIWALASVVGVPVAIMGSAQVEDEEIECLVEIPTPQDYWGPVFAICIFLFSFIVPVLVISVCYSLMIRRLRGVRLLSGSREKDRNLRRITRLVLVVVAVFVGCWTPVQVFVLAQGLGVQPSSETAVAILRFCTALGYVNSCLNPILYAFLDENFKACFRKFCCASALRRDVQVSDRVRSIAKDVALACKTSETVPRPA

As to `CCCCCC(=O)N[C@@H](CCCNC(=N)N)C(=O)N[C@@H](Cc1ccc(O)cc1)C(=O)N[C@@H](Cc1ccc(O)cc1)C(=O)N[C@@H](CCCNC(=N)N)C(=O)N[C@@H](Cc1c[nH]c2ccccc12)C(=O)N[C@@H](CCCNC(=N)N)C(N)=O` [IV-17-C, Hexanoyl-RYYRWR-NH2] (Hexanoyl-RYYRWR-NH2), the “[35S]GTPγS Binding Percent Stimulation” value at human ORL1 [1] (Table 1, relative to nociceptin) amounted to 18%. Moreover, the “agonist/antagonist character at ORL1” value on human ORL1 [1] is “very low efficacy compound”. Further, the “analgesic activity and potentiation of morphine analgesia in vivo” value in experiment [2] is given as “no measurable in vivo activity”. Besides, the half-inhibitory concentration (IC50) at human ORL1 [3] was found to be 2.6 nM. For the same compound, on human ORL1 [4] (FIG. 2), the “potency as antagonist relative to N^1-Phe-nociceptin (1-13)NH2” value is reported as “at least 10 times”. Further, the “stimulation of [35S]GTPγS binding remaining” value at human ORL1 [4] (at 1 and 10 μM, with 10 nM nociceptin) is listed as 20%.
With `CCCCC(=O)N[C@@H](CCCNC(=N)N)C(=O)N[C@@H](Cc1ccc(O)cc1)C(=O)N[C@@H](Cc1ccc(O)cc1)C(=O)N[C@@H](CCCNC(=N)N)C(=O)N[C@@H](Cc1c[nH]c2ccccc12)C(=O)N[C@@H](CCCNC(=N)N)C(N)=O` [VII-7-B, Pentanoyl-Arg-Tyr-Tyr-Arg-Trp-Arg-NH2] (Pentanoyl-RYYRWR-NH2), the “analgesic effect (% antinociception)” value with mice [5] was “showed analgesic properties”. The “EC50 ± SEM, stimulation of [35S]GTPγS binding” value at human ORL1 [1] (Table 6) is given as “FLAT”. The “agonist/antagonist character at ORL1” value at human ORL1 [1] is given as “very potent antagonist”. The Emax on human ORL1 [1] (read-out: % Stimulation ± SEM of [35S]GTPγS binding) was less than 20%. Besides, in the experiment with mice [6] (10 nmol alone or with N/OFQ, 5 minutes post-injection), the “effect on morphine-induced analgesia” value is given as “reduction in morphine-induced analgesia”. In addition, in the experiment on mice [6] (10 and 20 minutes post injection), the “effect on nociceptin action on morphine analgesia” value is given as “did not alter the effects of nociceptin”. Further, the “reversal of nociceptin's inhibition of morphine-induced analgesia” value in the experiment on mice [6] (morphine + nociceptin + 3 or 10 nmol antagonist icv, FIG. 11) is listed as “did not reverse the inhibition of morphine-induced analgesia”. Further, the “Hill Coefficient” value at human ORL1 [3] (Table 5) is 0.8. Besides, the “shift of nociceptin dose response curve” value on human ORL1 [4] (FIG. 9) was “dose-dependent parallel shift”. Moreover, at human ORL1 [4] (nociceptin dose response curve), the “pA2, Schild analysis” value is listed as 8.99±0.05 and the “slope, Schild analysis” value is −1.02.
